Reference: patent US20230210829A1, “REJUVENATION OF AGED TISSUES BY INHIBITION OF THE PGE2 DEGRADING ENZYME, 15-PGDH” (The Board of Trustees of the Leland Stanford Junior …, priority 2020, published 2023)

Legend:
[1] = tested on: aged mice; assay: Hematoxylin and Eosin (H&E) histological evaluation of spleen in aged mice treated with 15-PGDH inhibitor; format: in vivo; settings: aged (25 months) mice, intraperitoneally for 4 weeks, H&E staining
Method: FIG. 3. […] Hematoxylin and Eosin (H&E) staining of spleen in young vehicle treated (4 months), aged vehicle treated (25 months) and aged SW033291 treated (25 months) intraperitoneally for 4 weeks.
(§1) All experiments and protocols were performed in compliance with the institutional guidelines of Stanford University and Administrative Panel on Laboratory Animal Care (APLAC). Aged (>24 mo.) mice C57BL/6 were obtained from the US National Institute on Aging (NIA) for aged muscle studies, and young (2-4 mo.) wild-type C57BL/6 mice from Jackson Laboratory.

[2] = tested on: aged mice; assay: Luminex assay of mouse sera (serum cytokine levels) in aged mice treated with 15-PGDH inhibitor; format: in vivo; settings: aged (25 months) mice, 4 weeks intraperitoneal administration
Description: FIGS. 4A-4H. Inhibition of 15-PGDH rejuvenates systemic cytokine levels. Serum levels of (FIG. 4A) interleukin-10 (IL10), (FIG. 4B) interleukin-6 (IL6), (FIG. 4C) betacellulin (BTC), (FIG. 4D) granulocyte-macrophage colony-stimulating factor (GM-CSF), (FIG. 4E) interleukin-13 (IL13), (FIG. 4F) tumor necrosis factor-alpha (TNFA), (FIG. 4G) interleukin-1 beta (IL1B), and (FIG. 4H) interleukin-22 (IL22) measured in young vehicle (4 months), young SW033291 (4 months), aged vehicle treated (25 months), and aged SW033291 treated (25 months) mice by Luminex bead arrays. MFI—Mean fluorescence intensity.
as §1
Aging is associated with an altered state of inflammation and is associated with changes in circulating levels of various cytokines. Altered cytokine signaling in aging can initiate a cascade of dysregulated signaling pathways that negatively impact the function of various organs. Age-dysregulated cytokine signaling has been implicated in increased mortality, frailty, cellular senescence, vascular aging, cognitive decline, atherosclerosis, risk of osteoarthritis, and loss of bone mineral density in aging. […] Furthermore, a reduction of IL6 is associated with reduced adipose tissue inflammation and reduced cellular senescence. […] Increased IL22 levels are anti-inflammatory in colonic tissue and are beneficial for inflammatory bowel disease and colitis. […] This systemic effect in turn ameliorates the function of other tissues.

Structure (SMILES): CCCC[S+]([O-])c1sc2nc(-c3cccs3)cc(-c3ccccc3)c2c1N (stereo not drawn) [SW033291, 2-(butylsulfinyl)-4-phenyl-6-(thiophen-2-yl)thieno[2,3-b]pyridin-3-amine]
- cell density within the splenic follicles [1]: increased cell density within the follicles
- follicular structure of spleen [1]: restored
- marginal zone of spleen [1]: reestablished
- splenic morphology ([1]; vs aged vehicle and young): rejuvenated the splenic morphology
- serum level of interleukin-10 (IL10) ([2]; FIG. 4A): restored to levels similar to those of young mice
- serum level of interleukin-6 (IL6) ([2]; FIG. 4B): restored to levels similar to those of young mice
- serum level of betacellulin (BTC) ([2]; FIG. 4C): restored to levels similar to those of young mice
- serum level of granulocyte-macrophage colony-stimulating factor (GM-CSF) ([2]; FIG. 4D): restored to levels similar to those of young mice
- serum level of interleukin-13 (IL13) ([2]; FIG. 4E): restored to levels similar to those of young mice
- serum level of tumor necrosis factor-alpha (TNFA) ([2]; FIG. 4F): further increased
- serum level of interleukin-1 beta (IL1B) ([2]; FIG. 4G): further increased
- serum level of interleukin-22 (IL22) ([2]; FIG. 4H): further increased
